The values that follow come from US20240132450A1, “MODULATORS OF G PROTEIN-COUPLED RECEPTOR 88” (ACADIA Pharmaceuticals Inc., priority 2020, published 2024).

hGPR88 receptor, sequence (Q9GZN0 whole entry): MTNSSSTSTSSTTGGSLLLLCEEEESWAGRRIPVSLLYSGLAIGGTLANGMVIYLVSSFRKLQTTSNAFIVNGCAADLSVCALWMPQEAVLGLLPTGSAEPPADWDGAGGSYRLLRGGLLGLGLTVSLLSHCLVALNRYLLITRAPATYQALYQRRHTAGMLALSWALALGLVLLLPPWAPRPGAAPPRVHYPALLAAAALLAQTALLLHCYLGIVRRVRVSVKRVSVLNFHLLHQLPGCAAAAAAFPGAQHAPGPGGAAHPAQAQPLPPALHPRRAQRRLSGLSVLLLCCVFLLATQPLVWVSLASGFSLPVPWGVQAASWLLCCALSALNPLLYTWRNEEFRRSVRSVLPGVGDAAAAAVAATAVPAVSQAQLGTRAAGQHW

The first experiment addresses hGPR88 receptor (Homo sapiens, UniProt Q9GZN0). Put plainly: hGPR88-HEK cAMP accumulation assay. Conditions: GRP88 agonist activity (EC50), HEK-293 cells expressing human recombinant GPR88, forskolin 200 nM, High/Medium/Low bands.
Consider `COCCN(C(=O)C(C)(C)Oc1ccc(F)cc1)c1ccc(-c2ccc(COC)cc2)cc1` [Example 15, 2-(4-fluorophenoxy)-N-(2-methoxyethyl)-N-(4′-(methoxymethyl)-[1,1′-biphenyl]-4-yl)-2-methylpropanamide], for which the EC50 lay within 1 to 5 µM. As for `COCc1ccc(-c2ccc(NC(=O)C(C)(C)Oc3ccc(C(F)(F)F)cn3)cc2)cc1` [Example 71, N-(4′-(methoxymethyl)-[1,1′-biphenyl]-4-yl)-2-methyl-2-((5-(trifluoromethyl)pyridin-2-yl)oxy)propenamide], the EC50 was > 5 µM. For the molecule `CC(C)(Oc1ccc(F)cc1)C(=O)Nc1ccc(-c2ccc(CN3CCOCC3)cc2)cn1` [Example 81, 2-(4-fluorophenoxy)-2-methyl-N-(5-(4-(morpholinomethyl)phenyl)pyridin-2-yl)propanamide], the EC50 was < 1 µM. For `CN(C(=O)C(C)(C)Oc1ccc(F)cc1)c1ccc(-c2ccc(CO)cc2F)cc1` [Example 108], the EC50 fell in the range of 1 to 5 µM. With `CC(C)(Oc1ccc(F)cc1)C(=O)Nc1ccc(-c2cnc(C(F)(F)F)nc2)cc1` [Example 38, 2-(4-fluorophenoxy)-2-methyl-/-(4-(2-(trifluoromethyl)pyrimidin-5-yl)phenyl)propenamide], the EC50 is > 5 µM. The same measure, in the same setting: next, `CC(C)(Oc1ccc(F)cc1)C(=O)Nc1ccc(-c2ccc(OC3CC3)cc2)cc1` [Example 41, N-(4′-cyclopropoxy-[1,1′-biphenyl]-4-yl)-2-(4-fluorophenoxy)-2-methylpropanamide]: > 5 µM; `CCCc1ccc(-c2ccc(NC(=O)C(C)(C)Oc3ccc(F)cc3)cc2)cn1` [Example 91, 2-(4-fluorophenoxy)-2-methyl-N-(4-(6-propylpyridin-3-yl)phenyl)propanamide]: 1 to 5 µM.

Consider `O=C(Nc1ccc(-c2ccc(CN3CCOCC3)cc2)cn1)C1CC1c1ccccn1` (racemic) [Example 83, (rac-trans)-N-(5-(4-(morpholinomethyl)phenyl)pyridin-2-yl)-2-(pyridin-2-yl)cyclopropane-1-carboxamide], for which the EC50 fell in the range of 1 to 5 µM. Regarding `COCc1ccc(-c2ccc(NC(=O)C(C)(C)Oc3cccc(C)c3)cc2)cc1` [Example 58, N-(4′-(methoxymethyl)-[1,1′-biphenyl]-4-yl)-2-methyl-2-(m-tolyloxy)propenamide], the EC50 was < 1 µM. For the molecule `COCc1ccc(-c2ccc(NC(=O)C(C)(C)Oc3ccc(Br)cc3)cc2)cc1` [Example 59, 2-(4-bromophenoxy)-N-(4′-(methoxymethyl)-[1,1′-biphenyl]-4-yl)-2-methylpropanamide], the EC50 is < 1 µM.

As to `COCc1ccc(-c2ccc(NC(=O)C(C)(C)Oc3cccc(C(F)(F)F)c3)cc2)cc1` [Example 100, N-(4′-(methoxymethyl)-[1,1′-biphenyl]-4-yl)-2-methyl-2-(3-(trifluoromethyl)phenoxy)propanamide], the EC50 lay within 1 to 5 µM. Take `COc1ccc(-c2ccc(NC(=O)C(C)(C)Oc3ccc(F)cc3)cc2)cc1` [Example 11, 2-(4-fluorophenoxy)-N-(4′-methoxy-[1,1′-biphenyl]-4-yl)-2-methylpropanamide]: the EC50 is > 5 µM. As to `CC(C)(Oc1ccc(F)cc1)C(=O)Nc1ccc(-c2ccc(OC(F)(F)F)cc2)cc1` [Example 12, 2-(4-fluorophenoxy)-2-methyl-N-(4′-(trifluoromethoxy)-[1,1′-biphenyl]-4-yl)propanamide], the EC50 is > 5 µM. Consider `COCc1ccc(-c2ccc(NC(=O)C3CC3c3ccccn3)cc2)cc1` (single isomer, unassigned) [Example 19, N-(4′-(methoxymethyl)-[1,1′-biphenyl]-4-yl)-2-(pyridin-2-yl)cyclopropane-1-carboxamide], for which the EC50 is > 5 µM.

For `O=C(Nc1ccc(-c2ccc(OC3CC3)cc2)cc1)C1CC1c1ccccn1` (single isomer, unassigned) [Example 130, N-(4′-cyclopropoxy-[1,1′-biphenyl]-4-yl)-2-(pyridin-2-yl)cyclopropane-1-carboxamide], the EC50 was > 5 µM. In the case of `COCc1ccc(-c2ccc(N(CC(C)C)C(=O)C(C)(C)Oc3ccc(F)cc3)cc2)cc1` [Example 23, 2-(4-fluorophenoxy)-N-isobutyl-N-(4′-(methoxymethyl)-[1,1′-biphenyl]-4-yl)-2-methylpropanamide], the EC50 was > 5 µM. Regarding `CCOc1ccc(-c2ccc(NC(=O)C(C)(C)Oc3ccc(F)cc3)cc2)cc1` [Example 51, N-(4′-ethoxy-[1,1′-biphenyl]-4-yl)-2-(4-fluorophenoxy)-2-methylpropanamide], the EC50 is > 5 µM. The same measure, in the same setting: next, `COCc1ccc(-c2ccc(NC(=O)C(C)(C)Oc3cccc(F)c3)cc2)cc1` [Example 62, 2-(3-fluorophenoxy)-N-(4′-(methoxymethyl)-[1,1′-biphenyl]-4-yl)-2-methylpropanamide]: < 1 µM; `CC(C)Cc1ccc(-c2ccc(NC(=O)C(C)(C)Oc3ccc(F)cc3)cc2)cc1` [Example 42, 2-(4-fluorophenoxy)-N-(4′-isobutyl-[1,1′-biphenyl]-4-yl)-2-methylpropanamide]: > 5 µM. Consider `COCc1ccc(-c2ccc(NC(=O)C(C)(C)Oc3ccccc3OC)cc2)cc1` [Example 101, N-(4′-(methoxymethyl)-[1,1′-biphenyl]-4-yl)-2-(2-methoxyphenoxy)-2-methylpropanamide], for which the EC50 was 1 to 5 µM. Regarding `COC(C)c1ccc(-c2ccc(NC(=O)C(C)(C)Oc3ccc(F)cc3)cc2)cc1` (stereo not drawn) [Example 119, 2-(4-fluorophenoxy)-N-(4′-(1-methoxyethyl)-[1,1′-biphenyl]-4-yl)-2-methylpropanamide], the EC50 is 1 to 5 µM. For the molecule `COCc1ccc(C23CC(NC(=O)C4CC4c4ccccn4)(C2)C3)cc1` (racemic) [Example 44, (rac-trans)-N-(3-(4-(methoxymethyl)phenyl)bicyclo[1.1.1]pentan-1-yl)-2-(pyridin-2-yl)cyclopropane-1-carboxamide], the EC50 is 1 to 5 µM.

As for `CCOc1ccc(-c2ccc(NC(=O)C(C)(C)Oc3ccc(OC)cc3)cc2)cn1` [Example 94, N-(4-(6-ethoxypyridin-3-yl)phenyl)-2-(4-methoxyphenoxy)-2-methylpropanamide], the EC50 is 1 to 5 µM. Same read-out and setting: under `COCc1ccc(-c2ccc(NC(=O)C3CC3c3ccccn3)nc2)cc1` (racemic) [Example 120, (rac-trans)-N-(5-(4-(methoxymethyl)phenyl)pyridin-2-yl)-2-(pyridin-2-yl)cyclopropane-1-carboxamide] stands 1 to 5 µM. With `COCc1ccc(C23CC(NC(=O)C4CC4c4ccccn4)(C2)C3)cc1` (racemic) [Example 110, (rac-trans)-N-(3-(4-(methoxymethyl)phenyl)bicyclo[1.1.1]pentan-1-yl)-2-(pyridin-2-yl)cyclopropane-1-carboxamide], the EC50 was 1 to 5 µM. As for `COCc1ccc(-c2ccc(N(CC(C)(C)O)C(=O)C(C)(C)Oc3ccc(F)cc3)cc2)cc1` [Example 39, 2-(4-fluorophenoxy)-N-(2-hydroxy-2-methylpropyl)-N-(4′-(methoxymethyl)-[1,1′-biphenyl]-4-yl)-2-methylpropanamide], the EC50 lay within 1 to 5 µM. Turning to `COCc1ccc(-c2ccc(NC(=O)C(C)(C)Oc3c(F)cccc3F)cc2)cc1` [Example 99, 2-(2,6-difluorophenoxy)-N-(4′-(methoxymethyl)-[1,1′-biphenyl]-4-yl)-2-methylpropanamide], the EC50 is 1 to 5 µM.

Regarding `CC(C)OCc1ccc(-c2ccc(NC(=O)C(C)(C)Oc3ccc(F)cc3)cc2)cc1` [Example 131, 2-(4-fluorophenoxy)-N-(4′-(isopropoxymethyl)-[1,1′-biphenyl]-4-yl)-2-methylpropanamide], the EC50 was > 5 µM.

In the case of `CC(C)Oc1ccc(-c2ccc(NC(=O)C3CC3c3ccccn3)cc2)cn1` (single isomer, unassigned) [Example 134, N-(4-(6-isopropoxypyridin-3-yl)phenyl)-2-(pyridin-2-yl)cyclopropane-1-carboxamide], the EC50 is > 5 µM. As for `COCc1ccc(-c2ccc(NC(=O)C(C)(C)Oc3ccc(C(N)=O)cc3)cc2)cc1` [Example 102, 4-((1-((4′-(methoxymethyl)-[1,1′-biphenyl]-4-yl)amino)-2-methyl-1-oxopropan-2-yl)oxy)benzamide], the concentration for a half-maximal effect (EC50) lay in the range of 1 to 5 µM. `COCc1ccc(C23CC(NC(=O)C4CC4c4ccccn4)(C2)C3)cc1` (racemic) [Example 112, (rac-trans)-N-(3-(4-(methoxymethyl)phenyl)bicyclo[1.1.1]pentan-1-yl)-2-(pyridin-2-yl)cyclopropane-1-carboxamide]: the EC50 was > 5 µM. For `COCc1ccc(-c2ccc(NC(=O)C(C)(C)Oc3ccccc3Cl)cc2)cc1` [Example 67, 2-(2-chlorophenoxy)-N-(4′-(methoxymethyl)-[1,1′-biphenyl]-4-yl)-2-methylpropanamide], the EC50 is < 1 µM. Regarding `CN(C)C(=O)c1ccc(-c2ccc(NC(=O)C(C)(C)Oc3ccc(F)cc3)cc2)cc1` [Example 16, 4′-(2-(4-fluorophenoxy)-2-methylpropanamido)-N,N-dimethyl-[1,1′-biphenyl]-4-carboxamide], the EC50 was > 5 µM. On the same count and under the same terms, next, `CN1CCN(Cc2ccc(-c3ccc(NC(=O)C(C)(C)Oc4ccc(F)cc4)cc3)cc2)CC1` [Example 72, 2-(4-fluorophenoxy)-2-methyl-N-(4′-((4-methylpiperazin-1-yl)methyl)-[1,1′-biphenyl]-4-yl)propanamide]: 1 to 5 µM; `O=C(Nc1ccc(-c2ccc(CN3CCOCC3)cc2)cc1)C1CC1c1ccccn1` (single isomer, unassigned) [Example 77, (1R*,2R*)-N-(4′-(morpholinomethyl)-[1,1′-biphenyl]-4-yl)-2-(pyridin-2-yl)cyclopropane-1-carboxamide]: 1 to 5 µM.

Staying with this experiment, now noted: read-out: GRP88 agonist activity (EC50); HEK-293 cells expressing human recombinant GPR88, forskolin 200 nM, High/Medium/Low bands.
For the molecule `COCc1ccc(-c2ccc(N(CC(C)(C)O)C(=O)C3CC3c3ccccn3)cc2)cc1` (stereo not drawn) [Example 142, N-(2-hydroxy-2-methylpropyl)-N-(4′-(methoxymethyl)-[1,1′-biphenyl]-4-yl)-2-(pyridin-2-yl)cyclopropane-1-carboxamide], the EC50 was > 5 µM.
